Structures can show the parent of a compound that is named as a salt.
Columns and labels:
Poliovirus 2 [1] = assay: Antiviral activity against Poliovirus 2 Sabin 2 in african green monkey Vero cells assessed as log reduction in virus titers after at 0.01 multiple round of replication at their respective half the maximum tolerated concentration after 32 hrs; assay type: functional
[2] = Selectivity index, ratio of CC50 for african green monkey Vero cells to ED50 for Poliovirus 2 Sabin 2; assay type: toxicity, cell-based
[3] = Cytotoxicity against african green monkey Vero cells assessed as drug concentration at which no cellular alteration was microscopically detected; assay type: cell-based; conditions: chlorocebus sabaeus, read-out: MTC
Poliovirus 2 [4] = assay: Antiviral activity against Poliovirus 2 Sabin 2 in african green monkey Vero cells assessed as log reduction in virus titers after at 0.01 multiple round of replication at their respective maximum tolerated concentration after 32 hrs; assay type: functional
Poliovirus 2 [5] = assay: Antiviral activity against Poliovirus 2 Sabin 2 in african green monkey Vero cells assessed as log reduction in virus titers after at 0.1 multiple round of replication at their respective maximum tolerated concentration after 32 hrs; assay type: functional
Poliovirus 2 [6] = assay: Antiviral activity against Poliovirus 2 Sabin 2 in african green monkey Vero cells assessed as log reduction in virus titers after at 0.001 multiple round of replication at their respective half the maximum tolerated concentration after 32 hrs; assay type: functional
[7] = Cytotoxicity against african green monkey Vero cells; assay type: cell-based; conditions: chlorocebus sabaeus
Poliovirus 2 [8] = assay: Antiviral activity against Poliovirus 2 Sabin 2 in african green monkey Vero cells assessed as log reduction in virus titers after at 0.001 multiple round of replication at their respective maximum tolerated concentration after 32 hrs; assay type: functional
Poliovirus 2 [9] = assay: Antiviral activity against Poliovirus 2 Sabin 2 infected in african green monkey Vero cells at 0.001 multiplicity of infection assessed as inhibition of virus-induced cytopathogenicity; assay type: functional; conditions: Enterovirus C, Sabin 2, Vero; read-out: ED50 (the source's name)
Poliovirus 2 [10] = assay: Antiviral activity against Poliovirus 2 Sabin 2 in african green monkey Vero cells assessed as log reduction in virus titers after at 0.1 multiple round of replication at their respective half of maximum tolerated concentration after 32 hrs; assay type: functional

| SMILES | Activity (Poliovirus 2 [1]) | selectivity ratio [2] | MNTC [3] [µM] | Activity (Poliovirus 2 [4]) | Activity (Poliovirus 2 [5]) | Activity (Poliovirus 2 [6]) | CC50 [7] [µM] | Activity (Poliovirus 2 [8]) | EC50 (Poliovirus 2 [9]) [µM] | Activity (Poliovirus 2 [10]) |
| --- | --- | --- | --- | --- | --- | --- | --- | --- | --- | --- |
| COc1cc2c(cc1OC)-c1c(OC)c(OC)cc3c1[C@H](C2)N(C(C)=O)CC3 | 0.5 | 6.8 | 250 | 1.5 | 1.5 | 1 | 342 | 1.5 | 50 | 0.5 |
| COc1cc2c(cc1O)C[C@H]1c3c(cc(OC)c(OC)c3-2)CCN1C | 1 | 16.7 | 125 | 1.5 | 1 | 1 | 250 | 2.5 | 15 | 0.5 |
| COc1cc2c(cc1O)C[C@@H]1NCCc3cc4c(c-2c31)OCO4 [ACTINODAPHNINE] |  |  | 95 |  |  |  | 107 |  |  |  |
| COc1cc2c(cc1O)C[C@H]1c3c(cc(O)c(OC)c3-2)CCN1C [BOLDINE] |  | 2 | 125 |  |  |  | 250 |  | 125 |  |
| COc1cc2c(cc1O)C[C@H]1c3c(cc4c(c3-2)OCO4)CCN1C [CASSYTHICINE] |  |  | 31 |  |  |  | 47 |  |  |  |
| COc1cc2c(cc1OC)-c1c(OC)c(OC)cc3c1[C@H](C2)N(C)CC3.O=C(O)/C=C/C(=O)O [GLAUCINE FUMARATE] | 1 | 15.8 | 62 | 1.5 | 1 | 1.5 | 142 | 3 | 9 | 0.5 |
| COc1c2c3c(c4c1OCO4)-c1ccccc1[C@H](O)[C@H]3N(C)CC2 [GUATTERINE] |  | 1.7 | 62 |  |  |  | 107 |  | 62 |  |
| COc1cc2c(cc1O)C[C@H]1c3c(cc(OC)c(O)c3-2)CCN1C.Cl [ISOBOLDINE HYDROCHLORIDE] | 1 | 14.5 | 125 | 1.5 | 1.5 | 1.5 | 217 | 2.5 | 15 | 1 |
| COc1cc2c(cc1O)C[C@@H]1NCCc3cc(OC)c(OC)c-2c31 [LAUROTETANINE] | 1 | 5.3 | 62 | 1.5 | 1 | 1 | 165 | 1.5 | 31 | 0.5 |
| O=C1c2ccccc2-c2c3c(cc4ccnc1c24)OCO3 [LIRIODENINE] |  |  | 31 |  |  |  | 48 |  |  |  |
| COc1cc2ccnc3c2c(c1OC)-c1ccccc1C3=O [LYSICAMINE] |  |  | 250 |  |  |  | 500 |  |  |  |
| COc1cc2c(cc1O)C[C@@H]1NCCc3cc(O)c(OC)c-2c31 [NORBOLDINE] |  | 1.5 | 62 |  |  |  | 95 |  | 62 |  |
| COc1cc2c3c(c1OC)-c1ccccc1C[C@H]3N(C)CC2.Cl [NUCIFERINE HYDROCHLORIDE] | 0.5 | 16.7 | 125 | 1 | 1 | 0.5 | 435 | 2 | 26 | 0.5 |
| COc1ccc2c(c1)[C@H](O)[C@@H]1c3c(cc4c(c3-2)OCO4)CCN1C [OLIVERIDINE] |  |  | 5 |  |  |  | 7 |  |  |  |
| COc1ccc2c(c1)[C@H](OC)[C@@H]1c3c(cc4c(c3-2)OCO4)CCN1C [OLIVERINE HCL] |  |  | 7 |  |  |  | 9 |  |  |  |
| COc1cccc2c1C(=O)c1nccc3cc4c(c-2c13)OCO4 [OXOSTEPHANINE] |  |  | 15 |  |  |  | 28 |  |  |  |
| CO[C@H]1c2ccccc2-c2c3c(cc4c2[C@@H]1NCC4)OCO3 [PACHYPODANTINE] |  |  | 20 |  |  |  | 25 |  |  |  |
| CO[C@H]1c2ccccc2-c2c3c(cc4c2[C@@H]1N(C)C[C@@H]4O)OCO3 [PACHYSTAUDINE] |  | 2.2 | 62 | 0.5 | 0 |  | 68 | 0.5 | 31 |  |

From ChEMBL document CHEMBL1158665, “Antipoliovirus structure-activity relationships of some aporphine alkaloids” (J Nat Prod, 1998)
